Data taken from ChEMBL document CHEMBL3885861, “Open TG-GATES”.

Species: Rattus norvegicus
Assay: Open TG-GATES - Regimen: Single
Type: toxicity, organism-based, Sprague-Dawley
Parameters: regimen Single, gender Male, age 6 weeks
Details: in vivo, po, 300 mg/kg, route gavage, dose level Middle; for APTT / Bas / Eos / Fbg / Hb / Ht / Lym / MCH / MCHC / MCV / Mono / Neu / PT / Plat / RBC / Ret / WBC: tissue Blood; for KIDNEY_L / KIDNEY_R / KIDNEY_TOTAL: tissue Kidney; for LIVER: tissue Liver; for A/G / ALP / ALT / AST / BUN / CRE / Ca / Cl / DBIL / GLC / IP / K / LDH / Na / PL / RALB / TBIL / TC / TG / TP / gamma-GTP: tissue Plasma

For `CC(S)C(=O)NCC(=O)O` (configuration not stated) [TIOPRONIN], the TERMINAL_BW (3 h) was 211.9 g, the APTT (3 h) was 22.7 s and the Bas (3 h) was 0%. The Eos (3 h) was 0.4%, the Fbg (3 h) was 295.4 mg/dL and the Hb (3 h) was 12.8 g/dL. The Ht (3 h) was 39.7%, the Lym (3 h) was 77.8% and the MCH (3 h) was 20.3 pg. The MCHC (3 h) was 32.2%, the MCV (3 h) was 63 fL and the Mono (3 h) was 2.6%. The Neu (3 h) was 18.4%, the PT (3 h) was 16.8 s and the Plat (3 h) was 116 x10_4/uL. For the same molecule, the RBC (3 h) was 631.6 x10_4/ul, the Ret (3 h) was 7.7% and the WBC (3 h) was 76.7 x10_2/uL. The KIDNEY_L (3 h) was 0.9 g, the KIDNEY_R (3 h) was 1 g and the KIDNEY_TOTAL (3 h) was 1.9 g. It also gave an LIVER (3 h) of 9.7 g, an A/G (3 h) of 1.2 and an ALP (3 h) of 1446.8 IU/L. The ALT (3 h) was 65.2 IU/L, the AST (3 h) was 83.6 IU/L and the BUN (3 h) was 10.8 mg/dL. It also gave a CRE (3 h) of 0.1 mg/dL, a Ca (3 h) of 10.7 mg/dL and a Cl (3 h) of 106.2 meq/L. The DBIL (3 h) was 0.002 mg/dL, the GLC (3 h) was 194.8 mg/dL and the IP (3 h) was 7.9 mg/dL. The K (3 h) was 3.9 meq/L, the LDH (3 h) was 169.4 IU/L and the Na (3 h) was 142.2 meq/L. The PL (3 h) was 125.2 mg/dL, the RALB (3 h) was 3 g/dL and the TBIL (3 h) was 0.02 mg/dL. It also gave a TC (3 h) of 73.6 mg/dL, a TG (3 h) of 47 mg/dL and a TP (3 h) of 5.4 g/dL. The gamma-GTP (3 h) was 2 IU/L, the TERMINAL_BW (6 h) was 212 g and the APTT (6 h) was 21.2 s. The Bas (6 h) was 0%, the Eos (6 h) was 0.8% and the Fbg (6 h) was 290.4 mg/dL. It also gave a Hb (6 h) of 12.6 g/dL, a Ht (6 h) of 38.8% and a Lym (6 h) of 80.4%. The MCH (6 h) was 20.2 pg, the MCHC (6 h) was 32.5% and the MCV (6 h) was 62.2 fL. It also gave a Mono (6 h) of 2.6%, a Neu (6 h) of 15.4% and a PT (6 h) of 16.9 s. For the same molecule, the Plat (6 h) was 121.4 x10_4/uL, the RBC (6 h) was 625 x10_4/ul and the Ret (6 h) was 8%. The WBC (6 h) was 77.2 x10_2/uL, the KIDNEY_L (6 h) was 0.9 g and the KIDNEY_R (6 h) was 1 g. For the same molecule, the KIDNEY_TOTAL (6 h) was 1.9 g, the LIVER (6 h) was 9.2 g and the A/G (6 h) was 1.2. The ALP (6 h) was 1527 IU/L, the ALT (6 h) was 58 IU/L and the AST (6 h) was 73 IU/L. The BUN (6 h) was 8.4 mg/dL, the CRE (6 h) was 0.1 mg/dL and the Ca (6 h) was 10.8 mg/dL. For the same molecule, the Cl (6 h) was 107.4 meq/L, the DBIL (6 h) was 0 mg/dL and the GLC (6 h) was 191.6 mg/dL. For the same molecule, the IP (6 h) was 9.6 mg/dL, the K (6 h) was 4.4 meq/L and the LDH (6 h) was 154.2 IU/L. It also gave a Na (6 h) of 142.2 meq/L, a PL (6 h) of 117.2 mg/dL and an RALB (6 h) of 2.9 g/dL. The TBIL (6 h) was 0.022 mg/dL, the TC (6 h) was 67.2 mg/dL and the TG (6 h) was 59.4 mg/dL. The TP (6 h) was 5.3 g/dL, the gamma-GTP (6 h) was 1.8 IU/L and the TERMINAL_BW (9 h) was 208.1 g. It also gave an APTT (9 h) of 23.7 s, a Bas (9 h) of 0% and an Eos (9 h) of 0.4%. It also gave a Fbg (9 h) of 293.4 mg/dL, a Hb (9 h) of 12.9 g/dL and a Ht (9 h) of 40.3%. For the same molecule, the Lym (9 h) was 77.8%, the MCH (9 h) was 20.7 pg and the MCHC (9 h) was 32.1%. For the same molecule, the MCV (9 h) was 64.6 fL, the Mono (9 h) was 2.4% and the Neu (9 h) was 18.6%. The PT (9 h) was 16.3 s, the Plat (9 h) was 118 x10_4/uL and the RBC (9 h) was 624 x10_4/ul. The Ret (9 h) was 7.7%, the WBC (9 h) was 77 x10_2/uL and the KIDNEY_L (9 h) was 0.9 g. For the same molecule, the KIDNEY_R (9 h) was 1 g, the KIDNEY_TOTAL (9 h) was 1.9 g and the LIVER (9 h) was 8.1 g. It also gave an A/G (9 h) of 1.2, an ALP (9 h) of 1363.8 IU/L and an ALT (9 h) of 52.8 IU/L. It also gave an AST (9 h) of 75 IU/L, a BUN (9 h) of 10.6 mg/dL and a CRE (9 h) of 0.1 mg/dL. For the same molecule, the Ca (9 h) was 10.6 mg/dL, the Cl (9 h) was 107.4 meq/L and the DBIL (9 h) was 0.008 mg/dL. It also gave a GLC (9 h) of 191.4 mg/dL, an IP (9 h) of 9.8 mg/dL and a K (9 h) of 4.2 meq/L. For the same molecule, the LDH (9 h) was 194.2 IU/L, the Na (9 h) was 143.2 meq/L and the PL (9 h) was 110.6 mg/dL. It also gave an RALB (9 h) of 2.8 g/dL, a TBIL (9 h) of 0.02 mg/dL and a TC (9 h) of 63.4 mg/dL. For the same molecule, the TG (9 h) was 42.2 mg/dL, the TP (9 h) was 5.3 g/dL and the gamma-GTP (9 h) was 1.2 IU/L. For the same molecule, the TERMINAL_BW (24 h) was 227.3 g, the APTT (24 h) was 21.1 s and the Bas (24 h) was 0%. It also gave an Eos (24 h) of 0.8%, a Fbg (24 h) of 312.6 mg/dL and a Hb (24 h) of 12.7 g/dL. For the same molecule, the Ht (24 h) was 38.9%, the Lym (24 h) was 80% and the MCH (24 h) was 20.4 pg. It also gave an MCHC (24 h) of 32.7%, an MCV (24 h) of 62.2 fL and a Mono (24 h) of 3%. The Neu (24 h) was 15%, the PT (24 h) was 16.1 s and the Plat (24 h) was 113.7 x10_4/uL. The RBC (24 h) was 624.6 x10_4/ul, the Ret (24 h) was 7.4% and the WBC (24 h) was 100.8 x10_2/uL. For the same molecule, the KIDNEY_L (24 h) was 1 g, the KIDNEY_R (24 h) was 1 g and the KIDNEY_TOTAL (24 h) was 1.9 g. For the same molecule, the LIVER (24 h) was 10.4 g, the A/G (24 h) was 1.2 and the ALP (24 h) was 1662.2 IU/L. The ALT (24 h) was 41.8 IU/L, the AST (24 h) was 72.4 IU/L and the BUN (24 h) was 14.6 mg/dL. The CRE (24 h) was 0.2 mg/dL, the Ca (24 h) was 10.8 mg/dL and the Cl (24 h) was 106.4 meq/L. The DBIL (24 h) was 0 mg/dL, the GLC (24 h) was 193.6 mg/dL and the IP (24 h) was 7.6 mg/dL. For the same molecule, the K (24 h) was 4.4 meq/L, the LDH (24 h) was 161.6 IU/L and the Na (24 h) was 142.6 meq/L. For the same molecule, the PL (24 h) was 143.2 mg/dL, the RALB (24 h) was 3 g/dL and the TBIL (24 h) was 0.018 mg/dL. It also gave a TC (24 h) of 81.6 mg/dL, a TG (24 h) of 102.4 mg/dL and a TP (24 h) of 5.6 g/dL. For the same molecule, the gamma-GTP (24 h) was 1.2 IU/L.
